Key:
JAK1 = molecular target: T1, JAK1 (Homo sapiens, UniProt P23458); test: Biochemical JAK1 kinase assay (LanthaScreen); details: for Ki: read-out: JAK 1 (pKi) (converted)
T1 construct: GST; purchased Life Technologies
Outline: (§1)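 GST-tagged JAK enzyme and GFP-STAT1 peptide preincubated with compound 1 h, then ATP added; 1 h kinase reaction at ambient temperature, pH 7.5 HEPES/MgCl2 buffer, 1% DMSO. Tb-anti-pSTAT1 (pTyr701) TR-FRET, 520/495 nm ratio; IC50 from 4-parameter fit, converted to pKi via Cheng-Prusoff.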

[1] = system: IL-2 stimulated pSTAT5 in Tall-1 T cells; test: Cellular JAK3 potency assay: inhibition of IL-2 stimulated pSTAT5 in Tall-1 T cells; type: cell-based, human; details: for IC50: Homo sapiens, TALL-1, IL-2 stimulated pSTAT5 in Tall-1 T cells, read-out: Tall-1 (pIC50) (converted); for Tall-1 (pIC50): IL-2 stimulated pSTAT5 in Tall-1 T cells
Outline: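 In human Tall-1 T cells, IL-2 (300 ng/ml final, 30 min) drives STAT5 phosphorylation after a 1 h compound pretreatment. Lysates are assayed for pSTAT5 by AlphaLisa, and IC50 derived from signal versus concentration is expressed as pIC50.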

JAK2 = molecular target: T2, JAK2 (Homo sapiens, UniProt O60674); test: Biochemical JAK2 kinase assay (LanthaScreen); details: for Ki: read-out: JAK 2 (pKi) (converted)
T2 construct: GST; purchased Life Technologies
T2 sequence (O60674 whole entry): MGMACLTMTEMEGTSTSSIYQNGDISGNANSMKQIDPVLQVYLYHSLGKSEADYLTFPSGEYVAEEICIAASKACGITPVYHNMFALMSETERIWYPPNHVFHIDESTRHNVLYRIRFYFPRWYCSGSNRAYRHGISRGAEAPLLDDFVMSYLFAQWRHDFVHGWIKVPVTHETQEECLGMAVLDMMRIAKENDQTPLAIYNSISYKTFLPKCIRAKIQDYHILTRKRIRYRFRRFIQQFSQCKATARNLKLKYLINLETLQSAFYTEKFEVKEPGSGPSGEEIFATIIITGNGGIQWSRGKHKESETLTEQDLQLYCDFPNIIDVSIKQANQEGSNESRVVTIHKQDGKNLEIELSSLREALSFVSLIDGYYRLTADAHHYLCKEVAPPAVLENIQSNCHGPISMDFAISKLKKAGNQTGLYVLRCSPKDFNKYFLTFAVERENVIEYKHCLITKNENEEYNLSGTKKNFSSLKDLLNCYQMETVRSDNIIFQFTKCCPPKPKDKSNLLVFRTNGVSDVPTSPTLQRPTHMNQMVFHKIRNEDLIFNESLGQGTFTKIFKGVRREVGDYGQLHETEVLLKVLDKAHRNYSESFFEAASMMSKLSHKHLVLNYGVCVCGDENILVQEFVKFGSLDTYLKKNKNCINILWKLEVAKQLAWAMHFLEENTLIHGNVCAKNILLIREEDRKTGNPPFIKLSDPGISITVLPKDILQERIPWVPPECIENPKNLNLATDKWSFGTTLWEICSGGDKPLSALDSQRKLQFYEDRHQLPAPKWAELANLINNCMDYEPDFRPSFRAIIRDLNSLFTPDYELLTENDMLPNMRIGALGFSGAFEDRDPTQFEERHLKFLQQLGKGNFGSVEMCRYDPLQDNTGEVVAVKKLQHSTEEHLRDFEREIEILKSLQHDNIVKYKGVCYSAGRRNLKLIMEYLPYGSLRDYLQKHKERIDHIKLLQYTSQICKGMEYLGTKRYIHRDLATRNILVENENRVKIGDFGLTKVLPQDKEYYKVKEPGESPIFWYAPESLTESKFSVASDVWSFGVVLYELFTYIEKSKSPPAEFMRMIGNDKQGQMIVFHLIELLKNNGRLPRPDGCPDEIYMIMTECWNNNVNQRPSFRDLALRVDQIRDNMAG
Outline: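 GST-tagged recombinant JAK2 pre-incubated 1 h at ambient temperature with compound and GFP-STAT1 peptide in HEPES pH 7.5/MgCl2 buffer, then ATP added for a 1 h reaction with 1% DMSO. TR-FRET read after EDTA and Tb-anti-pSTAT1 (pTyr701) addition; IC50 from 4-parameter fit, converted to pKi by Cheng-Prusoff.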

JAK3 = molecular target: T3, JAK3 (Homo sapiens, UniProt P52333); test: Biochemical JAK3 kinase assay (LanthaScreen); parameters: GST; purchased Life Technologies; details: for Ki: read-out: JAK 3 (pKi) (converted); for JAK3 (pKi)-JAK1 (pKi): selectivity: difference of pKi JAK3 and pKi JAK1
T3 sequence (P52333 1-1124): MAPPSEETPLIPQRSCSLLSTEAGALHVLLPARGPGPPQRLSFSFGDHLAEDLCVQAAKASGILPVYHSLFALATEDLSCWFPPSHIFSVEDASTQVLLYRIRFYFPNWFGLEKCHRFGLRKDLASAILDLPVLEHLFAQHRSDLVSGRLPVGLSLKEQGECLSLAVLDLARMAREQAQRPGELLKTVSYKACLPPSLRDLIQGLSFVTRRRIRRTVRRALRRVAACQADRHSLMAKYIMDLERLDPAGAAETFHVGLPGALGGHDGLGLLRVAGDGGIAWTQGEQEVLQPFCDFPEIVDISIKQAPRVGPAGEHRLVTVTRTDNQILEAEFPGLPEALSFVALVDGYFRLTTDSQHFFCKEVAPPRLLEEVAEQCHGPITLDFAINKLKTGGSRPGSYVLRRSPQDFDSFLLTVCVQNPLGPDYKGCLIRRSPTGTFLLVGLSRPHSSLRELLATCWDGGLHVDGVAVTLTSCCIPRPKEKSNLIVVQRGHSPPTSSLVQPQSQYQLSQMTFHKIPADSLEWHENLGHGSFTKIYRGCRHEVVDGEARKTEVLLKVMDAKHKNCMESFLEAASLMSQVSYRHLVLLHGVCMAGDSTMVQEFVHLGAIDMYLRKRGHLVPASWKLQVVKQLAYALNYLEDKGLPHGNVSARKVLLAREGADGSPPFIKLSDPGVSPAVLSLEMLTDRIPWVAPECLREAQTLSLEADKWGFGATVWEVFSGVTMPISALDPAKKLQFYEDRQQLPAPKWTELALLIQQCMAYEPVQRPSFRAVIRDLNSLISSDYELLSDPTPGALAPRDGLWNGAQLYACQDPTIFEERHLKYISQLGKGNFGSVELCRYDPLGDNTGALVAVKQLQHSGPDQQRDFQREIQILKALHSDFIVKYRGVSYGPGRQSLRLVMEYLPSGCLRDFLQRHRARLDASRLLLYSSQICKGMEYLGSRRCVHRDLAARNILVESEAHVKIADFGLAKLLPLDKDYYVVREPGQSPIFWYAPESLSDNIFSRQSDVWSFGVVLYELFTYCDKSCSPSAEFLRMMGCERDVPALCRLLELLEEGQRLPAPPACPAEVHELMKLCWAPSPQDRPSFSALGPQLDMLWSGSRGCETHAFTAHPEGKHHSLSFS
Outline: as §1

Tyk2 = molecular target: T4, Tyk2 (Homo sapiens, UniProt P29597); test: Biochemical Tyk2 kinase assay (LanthaScreen); details: for Ki: read-out: Tyk 2 (pKi) (converted)
T4 construct: GST; purchased Life Technologies
T4 sequence (P29597 whole entry): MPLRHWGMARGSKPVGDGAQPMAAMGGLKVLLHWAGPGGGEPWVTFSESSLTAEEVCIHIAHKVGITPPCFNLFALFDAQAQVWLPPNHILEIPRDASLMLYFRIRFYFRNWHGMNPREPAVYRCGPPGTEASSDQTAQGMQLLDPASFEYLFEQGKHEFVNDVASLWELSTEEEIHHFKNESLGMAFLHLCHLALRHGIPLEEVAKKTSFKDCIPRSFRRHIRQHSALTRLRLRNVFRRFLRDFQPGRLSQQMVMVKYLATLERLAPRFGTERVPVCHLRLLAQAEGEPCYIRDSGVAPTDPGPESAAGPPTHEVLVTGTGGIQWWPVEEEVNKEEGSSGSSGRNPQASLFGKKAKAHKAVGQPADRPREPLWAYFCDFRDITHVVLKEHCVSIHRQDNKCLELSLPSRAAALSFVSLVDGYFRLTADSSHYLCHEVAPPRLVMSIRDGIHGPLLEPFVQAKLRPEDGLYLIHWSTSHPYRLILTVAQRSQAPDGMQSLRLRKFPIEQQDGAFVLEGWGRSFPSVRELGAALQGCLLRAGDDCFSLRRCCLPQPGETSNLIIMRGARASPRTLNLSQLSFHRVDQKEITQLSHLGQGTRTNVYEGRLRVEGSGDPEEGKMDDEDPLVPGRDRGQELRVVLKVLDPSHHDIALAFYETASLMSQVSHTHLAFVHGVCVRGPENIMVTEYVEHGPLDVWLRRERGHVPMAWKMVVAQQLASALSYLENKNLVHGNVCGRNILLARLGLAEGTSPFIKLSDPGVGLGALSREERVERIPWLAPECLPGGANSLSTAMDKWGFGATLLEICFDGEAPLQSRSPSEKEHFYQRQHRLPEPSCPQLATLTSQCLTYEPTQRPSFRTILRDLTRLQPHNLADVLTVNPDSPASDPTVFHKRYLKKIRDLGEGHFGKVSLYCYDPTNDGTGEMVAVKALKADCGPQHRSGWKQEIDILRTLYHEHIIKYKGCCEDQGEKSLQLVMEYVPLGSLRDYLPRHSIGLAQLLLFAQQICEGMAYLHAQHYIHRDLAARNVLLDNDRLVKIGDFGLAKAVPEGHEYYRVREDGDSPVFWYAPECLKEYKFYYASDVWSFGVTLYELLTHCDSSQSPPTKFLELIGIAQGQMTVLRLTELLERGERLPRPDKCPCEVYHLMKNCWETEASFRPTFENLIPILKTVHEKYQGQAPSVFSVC
Outline: as §1

T1 sequence (P23458 whole entry): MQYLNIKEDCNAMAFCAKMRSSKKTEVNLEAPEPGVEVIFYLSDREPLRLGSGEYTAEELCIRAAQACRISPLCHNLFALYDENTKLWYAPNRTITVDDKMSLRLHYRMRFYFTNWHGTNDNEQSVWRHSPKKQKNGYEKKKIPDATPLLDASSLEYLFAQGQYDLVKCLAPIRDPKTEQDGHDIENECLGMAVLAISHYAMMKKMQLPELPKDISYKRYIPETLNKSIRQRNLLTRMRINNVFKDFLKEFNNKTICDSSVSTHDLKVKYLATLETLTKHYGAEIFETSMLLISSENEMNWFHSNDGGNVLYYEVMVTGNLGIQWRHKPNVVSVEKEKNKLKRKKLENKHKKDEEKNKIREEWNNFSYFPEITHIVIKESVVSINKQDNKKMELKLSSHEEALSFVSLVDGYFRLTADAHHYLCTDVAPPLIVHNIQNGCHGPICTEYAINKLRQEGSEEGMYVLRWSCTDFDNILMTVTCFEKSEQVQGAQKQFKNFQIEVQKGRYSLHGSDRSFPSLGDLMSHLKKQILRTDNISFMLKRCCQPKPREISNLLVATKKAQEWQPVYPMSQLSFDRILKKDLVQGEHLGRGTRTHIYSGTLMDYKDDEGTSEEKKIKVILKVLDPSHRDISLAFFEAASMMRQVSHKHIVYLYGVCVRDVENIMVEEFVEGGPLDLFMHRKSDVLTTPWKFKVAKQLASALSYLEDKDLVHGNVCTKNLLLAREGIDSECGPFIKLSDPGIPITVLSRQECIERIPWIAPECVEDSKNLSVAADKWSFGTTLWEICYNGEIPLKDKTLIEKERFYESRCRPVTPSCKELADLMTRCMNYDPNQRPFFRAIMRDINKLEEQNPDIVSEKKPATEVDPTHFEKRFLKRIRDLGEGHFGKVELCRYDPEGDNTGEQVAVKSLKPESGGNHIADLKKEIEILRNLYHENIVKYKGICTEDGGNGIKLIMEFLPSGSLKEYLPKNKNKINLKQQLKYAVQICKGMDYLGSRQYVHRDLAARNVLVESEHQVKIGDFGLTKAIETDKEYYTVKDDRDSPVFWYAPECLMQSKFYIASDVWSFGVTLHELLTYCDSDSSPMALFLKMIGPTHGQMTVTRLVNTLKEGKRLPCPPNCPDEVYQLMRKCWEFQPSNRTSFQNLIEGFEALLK

COC1CCCN(C/C=C/C(=O)N2CC(COc3cc(-c4ccc(O)cc4)cc4[nH]ncc34)C2)C1 (stereo not drawn) [Compound 3-128]
Ki (JAK1): > 100 nM | IC50 [1]: 31.6 to 200 nM | Ki (JAK2): 0.1 to 1 nM | Ki (JAK3): < 0.1 nM | JAK3 (pKi)-JAK1 (pKi) (JAK3): A (a value of 3 or above) | Ki (Tyk2): > 100 nM

CSC1CCN(C/C=C/C(=O)N2CC(COc3cc(-c4ccc(O)cc4)cc4[nH]ncc34)C2)CC1 [Compound 3-131]
Ki (JAK1): > 100 nM | IC50 [1]: < 31.6 nM | Ki (JAK2): 0.1 to 1 nM | Ki (JAK3): 0.1 to 1 nM | JAK3 (pKi)-JAK1 (pKi) (JAK3): B (a value of 2.3 to 3) | Ki (Tyk2): > 100 nM

COC1CN(C/C=C/C(=O)N2CC(COc3cc(-c4ccc(O)cc4)cc4[nH]ncc34)C2)C1 [Compound 3-132]
Ki (JAK1): > 100 nM | IC50 [1]: 200 to 1000 nM | Ki (JAK2): > 100 nM | Ki (JAK3): 0.1 to 1 nM | JAK3 (pKi)-JAK1 (pKi) (JAK3): A (a value of 3 or above) | Ki (Tyk2): > 100 nM

COC1(C)CN(C/C=C/C(=O)N2CC(COc3cc(-c4ccc(O)cc4)cc4[nH]ncc34)C2)C1 [Compound 3-133]
Ki (JAK1): > 100 nM | IC50 [1]: 200 to 1000 nM | Ki (JAK2): 10 to 100 nM | Ki (JAK3): < 0.1 nM | JAK3 (pKi)-JAK1 (pKi) (JAK3): A (a value of 3 or above) | Ki (Tyk2): > 100 nM

C=CC(=O)N1CC(CN(C)c2cc(-c3ccc(O)cc3)cc3[nH]ncc23)C1 [Compound 4-1]
JAK 1 (pKi) (JAK1): E (a pKi value of 7 or below (Ki of 100 nM or above)) | Tall-1 (pIC50) [1]: B (a pIC50 value between 6.7 (included) and 7.5 (IC50 between 200 nM and 32 nM)) | JAK 2 (pKi) (JAK2): E (a pKi value of 7 or below (Ki of 100 nM or above)) | JAK 3 (pKi) (JAK3): B (a pKi value between 9 and 10 (Ki between 1 nM and 0.1 nM)) | JAK3 (pKi)-JAK1 (pKi) (JAK3): A (a value of 3 or above) | Tyk 2 (pKi) (Tyk2): E (a pKi value of 7 or below (Ki of 100 nM or above))

C=CC(=O)N1CC(C)(CNc2cc(-c3ccc(O)cc3)cc3[nH]ncc23)C1 [Compound 4-2]
JAK 1 (pKi) (JAK1): D (a pKi value between 7 and 8 (Ki between 100 nM and 10 nM)) | Tall-1 (pIC50) [1]: B (a pIC50 value between 6.7 (included) and 7.5 (IC50 between 200 nM and 32 nM)) | JAK 2 (pKi) (JAK2): D (a pKi value between 7 and 8 (Ki between 100 nM and 10 nM)) | JAK 3 (pKi) (JAK3): B (a pKi value between 9 and 10 (Ki between 1 nM and 0.1 nM)) | JAK3 (pKi)-JAK1 (pKi) (JAK3): B (a value of 2.3 to 3) | Tyk 2 (pKi) (Tyk2): E (a pKi value of 7 or below (Ki of 100 nM or above))

CN(C)C/C=C/C(=O)N1CC(CN(C)c2cc(-c3ccc(O)c(Cl)c3)cc3[nH]ncc23)C1 [Compound 4-4]
JAK 1 (pKi) (JAK1): E (a pKi value of 7 or below (Ki of 100 nM or above)) | Tall-1 (pIC50) [1]: B (a pIC50 value between 6.7 (included) and 7.5 (IC50 between 200 nM and 32 nM)) | JAK 2 (pKi) (JAK2): E (a pKi value of 7 or below (Ki of 100 nM or above)) | JAK 3 (pKi) (JAK3): A (a pKi value≥10 (Ki≤0.1 nM)) | JAK3 (pKi)-JAK1 (pKi) (JAK3): A (a value of 3 or above) | Tyk 2 (pKi) (Tyk2): E (a pKi value of 7 or below (Ki of 100 nM or above))

C=CC(=O)N1CC(CN(C)c2cc(-c3ccc(O)c(Cl)c3)cc3[nH]ncc23)C1 [Compound 4-5]
JAK 1 (pKi) (JAK1): E (a pKi value of 7 or below (Ki of 100 nM or above)) | Tall-1 (pIC50) [1]: A (a pIC50 value≥7.5 (IC50≤32 nM)) | JAK 2 (pKi) (JAK2): E (a pKi value of 7 or below (Ki of 100 nM or above)) | JAK 3 (pKi) (JAK3): B (a pKi value between 9 and 10 (Ki between 1 nM and 0.1 nM)) | JAK3 (pKi)-JAK1 (pKi) (JAK3): A (a value of 3 or above) | Tyk 2 (pKi) (Tyk2): E (a pKi value of 7 or below (Ki of 100 nM or above))

CN(C)C/C=C/C(=O)N1CC(CN(C)c2cc(-c3ccc(O)c(F)c3)cc3[nH]ncc23)C1 [Compound 4-6]
JAK 1 (pKi) (JAK1): E (a pKi value of 7 or below (Ki of 100 nM or above)) | Tall-1 (pIC50) [1]: B (a pIC50 value between 6.7 (included) and 7.5 (IC50 between 200 nM and 32 nM)) | JAK 2 (pKi) (JAK2): E (a pKi value of 7 or below (Ki of 100 nM or above)) | JAK 3 (pKi) (JAK3): B (a pKi value between 9 and 10 (Ki between 1 nM and 0.1 nM)) | JAK3 (pKi)-JAK1 (pKi) (JAK3): A (a value of 3 or above) | Tyk 2 (pKi) (Tyk2): E (a pKi value of 7 or below (Ki of 100 nM or above))

C=CC(=O)N1CC(CN(C)c2cc(-c3ccc(O)c(F)c3)cc3[nH]ncc23)C1 [Compound 4-7]
JAK 1 (pKi) (JAK1): E (a pKi value of 7 or below (Ki of 100 nM or above)) | Tall-1 (pIC50) [1]: B (a pIC50 value between 6.7 (included) and 7.5 (IC50 between 200 nM and 32 nM)) | JAK 2 (pKi) (JAK2): E (a pKi value of 7 or below (Ki of 100 nM or above)) | JAK 3 (pKi) (JAK3): C (a pKi value between 8 and 9 (Ki between 10 nM and 1 nM)) | JAK3 (pKi)-JAK1 (pKi) (JAK3): B (a value of 2.3 to 3) | Tyk 2 (pKi) (Tyk2): E (a pKi value of 7 or below (Ki of 100 nM or above))
